Source: patent publication US20220072008A1 (CEDARS-SINAI MEDICAL CENTER, priority 2020, published 2022)
Where “and” joins values, the source holds several entries; their conditions need not be identical. Equal values may be shown once.

Columns and labels:
[1] = system: hospitalized men with COVID-19; assay: Randomized controlled pilot trial: clinical status and clinical outcomes, progesterone + SOC vs SOC alone; assay type: in vivo, human
[2] = Randomized controlled pilot trial: serious adverse events and safety; assay type: in vivo, human
Method: Death, serious adverse events (SAE's), and grade 3 and 4 adverse events (AEs) are will be assessed and reported throughout the study.
Study patients were assessed daily for 15 days or until discharge, whichever came first. Discharged patients participated in phone or video study visits on days 7 and 15. Clinical assessment performed daily during hospitalization included evaluation of clinical status with daily vital signs, oxygen supplementation type and amount, need for mechanical ventilation, adverse events, and concomitant medications. WBCs, hemoglobin, platelets, electrolytes, BUN, creatinine, liver transaminases, and inflammatory markers, if obtained as part of SOC, were monitored on days 1 through 5, 7, and 15 while patients were hospitalized. […] Self-reported race and ethnicity, obtained from medical records, were collected as demographic information to assess possible differences in disease severity or treatment response. Serious adverse events and grade 3 and 4 adverse events as described in the Division of AIDS Table for Grading the Severity of Adult and Pediatric Adverse Events were recorded.

[3] = 100 mg sc twice daily 5 days + SOC, n = 18
[4] = 100 mg sc twice daily 5 days + SOC, preliminary analysis N = 17
[5] = 7-point ordinal scale, preliminary analysis N = 17, P 0.003 vs SOC
[6] = 7-point ordinal scale, preliminary analysis N = 17, P <0.001 vs SOC
[7] = seven-point ordinal scale, from baseline, n = 18
[8] = Control Group After Progesterone n = 9, SAEs after receiving progesterone (crossover)

With `CC(=O)[C@H]1CC[C@H]2[C@@H]3CCC4=CC(=O)CC[C@]4(C)[C@H]3CC[C@]12C` [Progesterone, progesterone] the “Status on day 7: 1: Death” value [1, 3] was 1 (5.6) No. (%), the “Status on day 7: 2: Hospitalized; on invasive mechanical ventilation or ECMO” value [1, 3] was 0 (0.0) No. (%) and the “Status on day 7: 3: Hospitalized; on high-flow nasal cannula” value [1, 3] was 2 (11.1) No. (%). For the same compound, the “Status on day 7: 4: Hospitalized; requiring supplemental oxygen (not HFNC)” value [1, 3] was 2 (11.1) No. (%), the “Status on day 7: 5: Hospitalized; not requiring supplemental oxygen” value [1, 3] was 4 (22.2) No. (%) and the “Status on day 7: 6: Not hospitalized; limitations on activities” value [1, 3] was 7 (38.9) No. (%). The “Status on day 7: 7: Not hospitalized; no limitations on activities” value [1, 3] was 2 (11.1) No. (%), the “Status on day 15: 1: Death” value [1, 3] was 1 (5.6) No. (%) and the “Status on day 15: 2: Hospitalized; on invasive mechanical ventilation or ECMO” value [1, 3] was 0 (0.0) No. (%). The “Status on day 15: 3: Hospitalized; on high-flow nasal cannula” value [1, 3] was 0 (0.0) No. (%), the “Status on day 15: 4: Hospitalized; requiring supplemental oxygen (not HFNC)” value [1, 3] was 1 (5.6) No. (%) and the “Status on day 15: 5: Hospitalized; not requiring supplemental oxygen” value [1, 3] was 1 (5.6) No. (%). For the same compound, the “Status on day 15: 6: Not hospitalized; limitations on activities” value [1, 3] was 8 (44.4) No. (%), the “Status on day 15: 7: Not hospitalized; no limitations on activities” value [1, 3] was 7 (38.9) No. (%) and the “Status at Day 7: 2-Hospitalized; on invasive mechanical ventilation or ECMO” value [1, 4] was 0 (0.0) n (%). The “Status at Day 7: 3-Hospitalized; on high flow nasal cannula” value [1, 4] was 2 (11.8) n (%), the “Status at Day 7: 4-Hospitalized; requiring supplemental oxygen (not HFNC)” value [1, 4] was 2 (11.8) n (%) and the “Status at Day 7: 5-Hospitalized; not requiring supplemental oxygen” value [1, 4] was 4 (23.5) n (%). The “Status at Day 7: 6-Not hospitalized; limitations on activities” value [1, 4] was 7 (41.2) n (%), the “Status at Day 7: 7-Not hospitalized; no limitations on activities” value [1, 4] was 2 (11.8) n (%) and the “Worst Status Prior to Day 7: 2-Hospitalized; on invasive mechanical ventilation or ECMO” value [1, 4] was 0 (0.0) n (%). The “Worst Status Prior to Day 7: 3-Hospitalized; on high flow nasal cannula” value [1, 4] was 5 (29.4) n (%), the “Worst Status Prior to Day 7: 4-Hospitalized; requiring supplemental oxygen (not HFNC)” value [1, 4] was 11 (64.7) n (%) and the “Worst Status Prior to Day 7: 5-Hospitalized; not requiring supplemental oxygen” value [1, 4] was 1 (5.9) n (%). For the same compound, the “Change from Baseline at Day 7: 0” value [1, 5] was 3 (17.6) n (%), the “Change from Baseline at Day 7: +1” value [1, 5] was 3 (17.6) n (%) and the “Change from Baseline at Day 7: +2” value [1, 5] was 7 (41.2) n (%). For the same compound, the “Change from Baseline at Day 7: +3” value [1, 5] was 2 (11.8) n (%), the “Change from Baseline at Day 7: −1” value [1, 5] was 2 (11.8) n (%) and the “Change from Baseline at Day 7: −2” value [1, 5] was 0 (0.0) n (%). For the same compound, the “Change from Worst at Day 7: 0” value [1, 6] was 3 (17.6) n (%), the “Change from Worst at Day 7: +1” value [1, 6] was 4 (23.5) n (%) and the “Change from Worst at Day 7: +3” value [1, 6] was 2 (11.8) n (%). For the same compound, the “median hospital length of stay (LOS)” value ([1]; Progesterone Group n = 18) was 7.0 days, the “median number of days on supplemental oxygen” value ([1]; Progesterone Group n = 18) was 4.5 (IQR, 2.0-6.0) days and 4.5 days and the “patients remaining hospitalized at study completion” value ([1]; day 15, progesterone group) was “one”. The “cumulative probability of clinical improvement (increase of at least one point on the seven-point scale or live discharge)” value ([1]; first seven study days, Kaplan-Meier estimation, one noncompliant patient excluded, log-rank P=0.014 vs control) was 0.76 (95% CI, 0.55-0.93), the “fewer days hospitalized than control” value ([1]; median 7.0 vs 9.5 days) was 2.5 days and the “patients remaining hospitalized by day 7” value ([1]; nine of 18 patients) was 50%. For the same compound, the “median improvement more than control group, worst clinical status before day 7 vs status on day 7” value ([1]; post hoc sensitivity analysis, 95% CI, 1.0-2.0, P=0.006) was “two”, the “improvement in clinical status at Day 7 compared to SOC” value ([1]; preliminary analysis, Wilcoxon rank-sum p=0.003) was “greater degree of improvement in clinical status at Day 7” and the “improvement from worst status prior to Day 7 compared to SOC” value ([1]; preliminary sensitivity analysis, p<0.001) was “greater improvement over the SOC group”. The mechanical ventilation initiated ([1]; progesterone group, vs four of 22 control patients) was “none”, the “overall change in score from baseline to day 7, median better than control group” value ([1]; sensitivity analysis, last assessment before crossing over imputed as day 7 score, 95% CI, 0.0-2.0, P=0.010) was 1.5 points and the “Change in status on day 7: 0” value [1, 7] was 3 (16.7) No. (%). The “Change in status on day 7: +1” value [1, 7] was 3 (16.7) No. (%), the “Change in status on day 7: +2” value [1, 7] was 7 (38.9) No. (%) and the “Change in status on day 7: +3” value [1, 7] was 2 (11.1) No. (%). For the same compound, the “Change in status on day 7: −1” value [1, 7] was 2 (11.1) No. (%), the “Change in status on day 7: −2” value [1, 7] was 0 (0.0) No. (%) and the “Change in status on day 7: −3” value [1, 7] was 1 (5.6) No. (%). For the same compound, the “Change in status on day 15: 0” value [1, 7] was 1 (5.6) No. (%), the “Change in status on day 15: +1” value [1, 7] was 4 (22.2) No. (%) and the “Change in status on day 15: +2” value [1, 7] was 4 (22.2) No. (%). The “Change in status on day 15: +3” value [1, 7] was 7 (38.9) No. (%), the “Change in status on day 15: +4” value [1, 7] was 1 (5.6) No. (%) and the “Change in status on day 15: −1” value [1, 7] was 0 (0.0) No. (%). For the same compound, the “Change in status on day 15: −2” value [1, 7] was 0 (0.0) No. (%), the “Change in status on day 15: −3” value [1, 7] was 1 (5.6) No. (%) and the “Change in status on day 7, median (IQR)” value ([1]; seven-point ordinal scale, from baseline, n = 18, P .024 vs control) was 1.5 (0.0 to 2.0). The “Change in status on day 15, median (IQR)” value ([1]; seven-point ordinal scale, from baseline, n = 18, P .150 vs control) was 2.0 (1.0 to 3.0), the “overall improvement in median clinical status score from baseline to day 7 compared with control” value ([1]; seven-point ordinal scale, 95% CI, 0.0-2.0, P=0.024) was 1.5 points and the “serious adverse events attributable to progesterone” value ([2]; 100 mg sc twice daily) was “no serious adverse events attributable to progesterone”. The “Any SAE or death” value [2, 8] was 3 (33.3) No. (%), the “SAE: Cardiac arrest” value [2, 8] was 0 (0.0) No. (%) and the “SAE: Creatinine increased” value [2, 8] was 0 (0.0) No. (%). The “SAE: DVT” value [2, 8] was 1 (11.1) No. (%), the “SAE: Death” value [2, 8] was 0 (0.0) No. (%) and the “SAE: Hypoperfusion” value [2, 8] was 2 (22.2) No. (%). The “SAE: Hypoxia” value [2, 8] was 3 (33.3) No. (%), the “SAE: Lymphocyte count decreased” value [2, 8] was 0 (0.0) No. (%) and the “SAE: Pulmonary embolism” value [2, 8] was 0 (0.0) No. (%). For the same compound, the “Any SAE or death” value ([2]; Progesterone Group n = 18) was 2 (11.1) No. (%), the “SAE: Cardiac arrest” value ([2]; Progesterone Group n = 18) was 0 (0.0) No. (%) and the “SAE: Creatinine increased” value ([2]; Progesterone Group n = 18) was 0 (0.0) No. (%). For the same compound, the “SAE: DVT” value ([2]; Progesterone Group n = 18) was 1 (5.6) No. (%), the “SAE: Death” value ([2]; Progesterone Group n = 18) was 1 (5.6) No. (%) and the “SAE: Hypoperfusion” value ([2]; Progesterone Group n = 18) was 0 (0.0) No. (%). For the same compound, the “SAE: Hypoxia” value ([2]; Progesterone Group n = 18) was 0 (0.0) No. (%), the “SAE: Lymphocyte count decreased” value ([2]; Progesterone Group n = 18) was 0 (0.0) No. (%) and the “SAE: Pulmonary embolism” value ([2]; Progesterone Group n = 18) was 1 (5.6) No. (%). For the same compound, the risk of thromboembolism ([2]; all patients on prophylactic-dose anticoagulation) was “not associated with any significant increase in the risk of thromboembolism”, the “tolerability of high serum levels” value ([2]; levels as high as 288 ng/mL) was “tolerated well and not associated with any adverse events” and the “deaths during the total 15-day surveillance period” value ([2]; progesterone group, not attributable to progesterone) was “one”. For the same compound, the “patients with thromboembolic events” value ([2]; progesterone group, two thromboembolic events in one patient) was 5.6%.
